Peptide text beside a SMILES is read from it. * marks the point of attachment. Cbz = O=C(OCc1ccccc1)*; CH2F = FC*
Experiments:
Type in all cases: cell-based
[1] = tested on: Q79 transiently transfected HeLa cells; test: Cell protective effects by ATP depletion tests and luciferase activity analysis; settings: 5 μM or 25μM of the test compound
Method: (§1) A high-throughput method for identifying compounds that decrease cell toxicity or death has been designed. In this method, cells were seeded at 2×10^5 cells in 100 mm dishes. The next day the plated cells were transiently transfected with a plasmid encoding an expanded polyglutamine repeat, for example, Q79. Three hours later, transfection efficiency was assessed. Plates containing cells having 10-20% transfection efficiency at this 3 hour time point were trypsinized and re-plated at 600 or at 1500 cells per well in 384 well plates with clear bottoms. After 6 hours, the candidate compounds were added to the multi-well plates. The cells were cultured for 48 hours and ATP levels were determined using an ATPLite™ kit. Data was then expressed in either arbitrary units, or as relative ratio of ATP levels in Q79 transfected cells in compound-treated relative to vehicle-treated samples.
The structures and ChemBridge library product numbers for the compounds that tested positively in the ATP depletion assays and luciferase assays are shown in FIGS. 14A-14L. In addition, derivatives of some of the identified compounds, as shown in FIGS. 14A-14F, were identified and tested for their cell protective effects, as assayed by ATP depletion tests and luciferase activity analysis after administration of Q79 transiently transfected HeLa cells with 5 μM or 25μM of the test compound. […]

[2] = tested on: HeLa cells transfected with Q79-GFP; test: Cellular ATP levels (ATPLite) in Q79 expressing HeLa cells; settings: Q79-GFP, assayed 48 hours after transfection
Method: We also investigated whether Congo red prevented other cellular events during cell death, including ATP depletion, caspase activation, and protein synthesis inhibition. HeLa cells were transfected with the Q79-GFP construct. Forty-eight hours later, the viability of cells expressing expanded polyglutamine repeats was determined by measuring cellular ATP levels, suing an ATPLite™ kit, according to the directions provided by the manufacturer (Packard, Co.) (FIG. 5A).
To determine the effect of Congo red (100 μM) on polyglutamine-induced cell toxicity. HeLa cells were transiently transfected with Q79-GFP, and six hours later were administered various concentrations of Congo red. Cell viability was assayed 72 hours after transfection, by measuring the level of ATP in each sample. ATP levels in cells expressing Q79 were determined by using the ATPLite™ kit as recommended by the manufacturer (Packard, Inc.). Briefly, cells were transfected with Q79 and treated 6 hours after transfection. Forty-two hours later, the levels of ATP were determined. (FIG. 5C).
as §1
Derivatives of Congo red (commercially available from Sigma/Aldrich) were tested for their ability to alter cell toxicity and death by measuring ATP depletion and luciferase expression. The assay was carried out as described above for the high-throughput identification of compounds. Briefly, HeLa cells were transiently transfected with a Q79/GFP plasmid and were subsequently treated with various concentrations of Congo red, or 25 μM of each of Direct Orange 6, Direct Red 1, Direct Orange 1, Direct Black 51, Direct Orange 8, Direct Yellow 26, Direct Yellow 28, or Direct Blue 158. Drug treatment continued for 6 hours and then 48 hours later, ATP levels were measured in these cells and compared to the ATP levels in cells that were transiently transfected with GFP only, and also received the compound.

[3] = tested on: non-transfected HeLa cells; test: Total cellular protein degradation; settings: Congo red 100 μM, ZVAD 100 μM, MG132 10 μM; H3-tyrosine release, 0 to 180 minutes
Method: FIG. 8C is a graph of the effect of effect of Congo red, ZVAD, or the proteosome inhibitor MG132 on total cellular protein degradation in non-transfected HeLa cells.
To rule out the possibility that Congo red may have an effect on protein degradation in general, we tested the effect of Congo red on proteosome degradation. Rates of total cellular protein degradation experiments, from cells seeded in 12 well dishes at 2×10^4, treated with Congo red (100 μM), ZVAD (100 μM), or the proteosome inhibitor MG132 (10 μM) and labeled with 5 μCi/ml of H^3-tyrosine for 1 hour. One hundred microliter culture medium aliquots were collected at 0, 30, 60, 90, 120, and 180 minute time points, and the levels of H^3-tyrosine were determined using an LS6000 scintillation counter (Beckman, Co).

[4] = tested on: HeLa cells expressing Q79 expanded polyglutamine repeats; test: Cell death induced by TNF-α/CHX, Fas/CHX or H2O2; settings: 100 μM, one hour before the inducing agent; cell death 48 hours later
Method: FIG. 5F is a graph of the effects of Congo red, ZVAD, or vehicle (NT) on cell death when the cells are induced to die by receptor mediated pathways (TNF-α/cycloheximide (CHX), Fas/cycloheximide (CHX)), or necrosis (hydrogen peroxide).
HeLa cells expressing Q79 expanded polyglutamine repeats were treated with 100 μM Congo red, or 100 μM ZVAD (a positive control) for one hour prior to the addition of the apoptosis-inducing agent, and cell death was determined 48 hours later. […] Finally we tested whether Congo red can inhibit apoptosis induced by overexpression of caspase-1, -8, or -11.

Compound | cell protective effect (ATP depletion tests and luciferase activity analysis) [1] | ATP depletion upon expanded polyglutamine expression [2] | general protein degradation [3] | cell death induced by TNF-α/CHX, Fas/CHX, or H2O2 [4]
CC(=O)Nc1ccc(-c2ccc(NC(C)=O)cc2)cc1 [PQIG] | cytoprotective |  |  | 
C/C(=N\NC(=S)N1CCCCC1)c1ccccc1 [PQIB] | cytoprotective |  |  | 
COC(=O)C[C@H](NC(=O)[C@H](C)NC(=O)[C@@H](NC(=O)OCc1ccccc1)C(C)C)C(=O)CF [ZVAD, reference compound] (Cbz-Val-Ala-Asp(OMe)-CH2F) |  | inhibited | neither Congo red nor ZVAD had any effect | effective in inhibiting both TNF-α- and Fas-induced apoptosis

Source: US20020155172A1, “Methods and compounds for decreasing cell toxicity or death” (priority 2000, published 2002)
